Test results published in BindingDB's records for doi:10.1016/s0960-894x(01)00209-8 (Institut Für Biochemie Der Technischen …, 2001).

Target: Beta-glucosidase (Agrobacterium sp.) (UniProt P12614)
Assay: Inhibitory activity against Agrobacterium sp. Beta-glucosidase employing fluorescence spectrometric method

Beta-glucosidase (Agrobacterium sp.), sequence (P12614 whole entry, looked up): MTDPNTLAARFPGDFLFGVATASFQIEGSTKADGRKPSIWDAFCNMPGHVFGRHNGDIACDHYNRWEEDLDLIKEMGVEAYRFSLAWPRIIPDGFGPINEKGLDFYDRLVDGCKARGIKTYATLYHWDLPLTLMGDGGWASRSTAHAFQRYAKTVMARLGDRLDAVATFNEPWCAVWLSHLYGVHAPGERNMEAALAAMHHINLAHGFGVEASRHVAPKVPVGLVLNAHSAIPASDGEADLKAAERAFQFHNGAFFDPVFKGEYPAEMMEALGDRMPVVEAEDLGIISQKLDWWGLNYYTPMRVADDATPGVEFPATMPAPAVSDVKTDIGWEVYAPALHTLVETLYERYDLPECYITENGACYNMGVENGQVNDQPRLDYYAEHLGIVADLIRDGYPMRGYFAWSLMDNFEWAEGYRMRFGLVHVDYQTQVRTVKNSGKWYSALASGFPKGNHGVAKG

Ki | SMILES
2.4 nM | CN(C)c1cccc2c(S(=O)(=O)NC[C@H]3N[C@H](CO)[C@H](O)[C@@H]3O)cccc12 [5-Dimethylamino-naphthalene-1-sulfonic acid ((3S,4S,5R)-3,4-dihydroxy-5-hydroxymethyl-pyrrolidin-2-ylmethyl)-amide]
2.1 nM | CN(C)c1cccc2c(S(=O)(=O)NCCCCCC(=O)NC[C@H]3N[C@H](CO)[C@H](O)[C@@H]3O)cccc12 [6-(5-Dimethylamino-naphthalene-1-sulfonylamino)-hexanoic acid ((3S,4S,5R)-3,4-dihydroxy-5-hydroxymethyl-pyrrolidin-2-ylmethyl)-amide]
